Bounds are passed on as bounds.

Test [1] concerns the target T1, human histamine H3 receptor (Homo sapiens, UniProt Q9Y5N1). The test is described as follows: CRE-SPAP gene transcription in forskolin-stimulated CHO-H3-SPAP cells. To be noted: for agonist character in CRE-SPAP screen: inhibition of forskolin-stimulated CRE-SPAP production; for agonist character in CRE-SPAP screen / pIC50, CRE-SPAP: CHO-H3-SPAP cells; for Kd / Schild slope: CRE-SPAP; for pIC50, CRE-SPAP: agonism, inhibition of 4 μM forskolin-stimulated CRE-SPAP production; for Schild slope: 3 antagonist concentrations.
Description: (§1) The transfected cells were selected for neomycin resistance (1 mg/ml; for H3 receptor) and hygromycin resistance (200 μg/ml; for CRE-SPAP reporter gene) for 3 weeks and passaged twice during in this period. A single clone was then isolated by dilution cloning to give a clonal line (CHO-H3-SPAP cells). The parent cell CRE-SPAP was also used for control experiments (CHO-SPAP cells).
(§2) Cells were grown to confluence in 96-well tissue culture plates. The cells were then serum starved by removing the media and replacing it with 100 μl serum free media (DMEM/F12 containing 2 mM L-glutamine). […] Where used, pertussis toxin, at a final concentration of 100 ng/ml was added to the serum-free media and thus incubated with the cells for 24 hours. On the day of experimentation, the serum-free media was removed and replaced with 100 μl serum-free media or 100 μl serum-free media containing an antagonist at the final required concentration and the cells incubated for 1 hour. Agonist in 10 μl (diluted in serum free media) was then added to each well and the cells incubated for 10 minutes. Forskolin was then added to all but the basal wells to give a final well concentration of 4 μM and the plates incubated for 5 hours. After 5 hours, the media and all drugs were removed. […] The plates were then incubated at 65°C for 30 minutes to destroy any endogenous phosphatases. After cooling to 37°C, 100 μl 5 mM pNPP in diethanolamine buffer was added to each well and the plates incubated at 37°C in a normal atmosphere until the yellow colour developed.
(§3) Sigmoidal concentration-response curves were fitted to the data using Graphpad Prism 2 and the following equation:
(§4) Antagonist KD values were then calculated from the shift of the agonist concentration responses in the presence of a fixed concentration of antagonist using the following equation:
(§5) where DR (dose ratio) is the ratio of the agonist concentration required to stimulate an identical response in the presence and absence of a fixed concentration of antagonist [B].
(§6) In experiments where three different fixed concentrations of the same antagonist were used, Schild plots were constructed using the following equation:
Log (DR-1) = log [B] - log (KD)
(§7) These points were then fitted to a straight line.
(§8) Partial agonist dissociation constants were therefore estimated according to the method of Stephenson [35] using the following equation:
(§9) KD partial agonist=X.[P]/1−Xwhere X=[A2]−[A1]/[A3]

The target of test [2] is T1, human histamine H3 receptor. The test is described as follows: 3H-cAMP accumulation in forskolin-stimulated CHO-H3-SPAP cells. The format is cell-based. Further details: secondarily transfected with the full length human histamine H3 receptor; host or cells: CHO-K1 cells with CRE-SPAP reporter (clonal line CHO-H3-SPAP). To be noted: for intrinsic activity response in 3H-cAMP accumulation: n = 4. The protocol: Cells were grown to confluence in 24-well plates. The media was removed and the cells pre-labelled with ^3H-adenine by incubation with 2 μCi/ml ^3H-adenine in serum-free media (0.5 ml per well) for 3 hours. The ^3H-adenine was then removed and the cells washed by the addition then removal of 1 ml serum-free media. […] Forskolin (final concentration of 10 μM) was then added to all but the basal wells and the plates incubated for 30 minutes. The reaction was terminated by the addition of 50 μl concentrated HCl per well and the plates were then frozen. Later, the plates were thawed and ^3H-cAMP separated from other ^3H-nucleotides by sequential Dowex and alumina column chromatography, as previously described.
When the intrinsic efficacy of the antagonist ligands was examined, the antagonists were incubated for 5 hours at 37°C in order to maximise the chance of detecting any changes in ^3H-cAMP accumulation.
Response=Emax×[A]/IC50+[A]

For test [3] the target is unchanged. The test is described as follows: cell-based.
Description: as §1, §2, §3, §4, §5, §6
Log (DR-1) = log [B] - log (KD)
as §7, §8, §9
Another test concerns CHO-SPAP cells. The test is described as follows: CRE-SPAP gene transcription in parent CHO-SPAP cells (without the H3 receptor). The format is cell-based, Chinese hamster. The following applies: presence and absence of 4 μM forskolin, up to 100 μM (10 μM for zolatidine, conessine, iodophenpropit, clobenpropit, clemastine). How it is done: The response to all ligand used in this study was examined in the parent CHO-SPAP cells (expressing the reporter but not the human H3 receptor). Full 7-point concentration response curves were constructed, in the presence and absence of 4 μM forskolin. […].

The mark [4] stands for this setting: agonism, inhibition of 10 μM forskolin-stimulated 3H-cAMP accumulation, CHO-H3-SPAP cells, read-out: pIC50, 3H-cAMP accumulation (converted).
Setting [5] is: Log KD values, agonist N-α-methylhistamine.
Setting [6] is: Log KD values, agonist R-α-methylhistamine.
Where [7] appears, read: Log KD values, agonist S-α-methylhistamine.
The mark [8] stands for this setting: Log KD values, agonist VUF 8430.
Where [9] appears, read: Log KD values, agonist histamine.
The mark [10] stands for this setting: Log KD values, agonist immethridine.
Setting [11] is: Log KD values, agonist impentamine (first component of the response).
Where [12] appears, read: Log KD values, agonist proxyfan.
[13] abbreviates: agonism, inhibition of 10 μM forskolin-stimulated 3H-cAMP accumulation, CHO-H3-SPAP cells.

T1 sequence (Q9Y5N1 whole entry): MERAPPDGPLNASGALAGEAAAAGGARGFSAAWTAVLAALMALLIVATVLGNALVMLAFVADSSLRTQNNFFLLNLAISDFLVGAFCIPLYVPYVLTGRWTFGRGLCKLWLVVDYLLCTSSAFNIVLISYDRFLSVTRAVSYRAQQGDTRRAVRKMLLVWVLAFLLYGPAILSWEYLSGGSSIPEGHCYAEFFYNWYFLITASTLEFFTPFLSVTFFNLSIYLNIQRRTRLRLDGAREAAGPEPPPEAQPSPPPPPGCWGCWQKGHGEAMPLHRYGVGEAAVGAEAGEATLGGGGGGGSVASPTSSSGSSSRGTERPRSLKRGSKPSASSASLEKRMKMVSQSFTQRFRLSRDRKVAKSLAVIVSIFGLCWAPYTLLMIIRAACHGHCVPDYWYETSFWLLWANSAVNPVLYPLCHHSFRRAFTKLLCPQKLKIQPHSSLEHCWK

Turning to `CNC(=S)NCCCCc1cnc[nH]1` [burimamide], in test [1], the IC50 is 427 nM and the “agonist character in CRE-SPAP screen” value is listed as “partial agonist actions”. In addition, the IC50 in test [2] (setting [4]) was 224 nM.

`Cn1cnc(CCN)c1` [1-methylhistamine] gave an IC50 in test [1] of 20000 nM.

In the case of `CN(C)CCC(c1ccc(Cl)cc1)c1ccccn1` (stereo not drawn) [chlorpheniramine], the Kd (as a rule, a measure of binding affinity in units of concentration) is 3090 nM in test [1] (setting [5]); 3630 nM in test [1] (setting [6]); 3630 nM in test [1] (setting [7]); 7410 nM in test [1] (setting [8]); 4790 nM in test [1] (setting [9]); 2630 nM in test [1] (Log KD values, agonist imetit). Also, the Kd in test [1] (setting [10]) was 2950 nM; in test [1] (setting [11]) it was 6170 nM; in test [1] (setting [12]), 4070 nM; in test [3] it was 2570 nM. Besides, the “intrinsic activity response in 3H-cAMP accumulation” value (from here on “intrinsic activity response”) in test [2] (5 hours incubation with ligand) is given as “No responses”.

`Cc1nc[nH]c1CCN` [4-methylhistamine] gave an IC50 in test [1] of 11500 nM.

As to `NCCc1ccccn1` [2-pyridylethylamine], the IC50 in test [1] is above 100000 nM.

As for `CC(CCCCC(=O)Nc1ccc(C(F)(F)F)cc1)NCCc1cnc[nH]1` (stereo not drawn) [HTMT, histamine trifluoromethyl toluidide], the “pIC50, CRE-SPAP” value in test [1] is 5.21 ± 0.18.

Turning to `C[C@H]1[C@H]2CC[C@H]3[C@@H]4CC=C5C[C@@H](N(C)C)CC[C@]5(C)[C@H]4CC[C@]23CN1C` [conessine], the Schild slope in test [1] (agonist N-α-methylhistamine) amounted to 0.98 ± 0.05; in test [1] (agonist R-α-methylhistamine), 1.00 ± 0.06; in test [1] (agonist S-α-methylhistamine) it was 1.08 ± 0.04; in test [1] (agonist histamine), 1.07 ± 0.03; in test [1] (agonist imetit), 1.18 ± 0.09; in test [1] (agonist immepip) it was 1.09 ± 0.05. The same compound registered a Schild slope in test [1] (agonist immethridine) of 1.14 ± 0.08. The Kd in test [1] (pKD values, agonist N-α-methylhistamine) is 5.37 nM; in test [1] (pKD values, agonist R-α-methylhistamine), 5.75 nM; in test [1] (pKD values, agonist S-α-methylhistamine), 5.25 nM; in test [1] (pKD values, agonist VUF 8430) it was 7.08 nM; in test [1] (pKD values, agonist histamine) it was 5.13 nM; in test [1] (pKD values, agonist imetit), 5.75 nM. The Kd in test [1] (pKD values, agonist immethridine) was 3.8 nM; in test [1] (pKD values, agonist impentamine (first component of the response)), 4.17 nM; in test [1] (pKD values, agonist proxyfan), 2.75 nM; in test [3], 8.13 nM. The “inverse agonist response, 3H-cAMP accumulation” value in test [2] (5 hours incubation with ligand) was determined as 120 ± 1.5 % basal. In addition, in test [2] (5 hours incubation with ligand, read-out: pEC50, inverse agonist response, 3H-cAMP accumulation (converted)), the EC50 was 3.09 nM.

In test [1], `CN(C)CCCSC(=N)N` [dimaprit] had an IC50 of 2570 nM.

Regarding `c1nc(CC2CCNCC2)c[nH]1` [immepip], the IC50 was 0.224 nM in test [1] and 0.0501 nM in test [2].

In the case of `Br.Br.c1nc(CCCC2CCNCC2)c[nH]1` [VUF 5681, 4-[3-(1H-imidazol-4-yl)propyl]piperidine dihydrobromide], the IC50 in test [1] is 25.1 nM; in test [2] (setting [4]), 3.89 nM; in test [2] (pIC50, 3H-cAMP accumulation, 5 hours incubation, partial agonist response, 5 hours incubation with ligand), 3.8 nM. For the same compound, the dissociation constant Kd was 11.2 nM in test [1] (setting [5]); 25.1 nM in test [1] (setting [6]); 17.8 nM in test [1] (setting [7]); 19.5 nM in test [1] (setting [8]); 17 nM in test [1] (setting [9]); 14.1 nM in test [1] (Log KD values, agonist imetit). The dissociation constant (Kd) in test [1] (setting [10]) is 16.2 nM; in test [1] (setting [12]), 15.8 nM; in test [3], 19.1 nM. Moreover, the “agonist character in CRE-SPAP screen” value in test [1] was “agonist properties”. For the same compound, the “CRE-SPAP response in parent CHO-SPAP cells” value with CHO-SPAP cells was “A small decrease from maximum was seen only at the highest concentration (100 μM)”.

Turning to `c1cc(Cc2cnc[nH]2)ccn1` [immethridine], the IC50 was 0.389 nM in test [1] and 0.174 nM in test [2].

As for `Cc1ccc(/C(=C\CN2CCCC2)c2ccccn2)cc1` [triprolidine], the dissociation constant (Kd) is 4570 nM in test [1] (setting [5]); 2630 nM in test [1] (setting [6]); 3390 nM in test [1] (setting [7]); 5500 nM in test [1] (setting [8]); 4470 nM in test [1] (setting [9]); 3720 nM in test [1] (Log KD values, agonist imetit). The Kd was 2950 nM in test [1] (setting [10]), 2240 nM in test [1] (setting [11]), 5890 nM in test [1] (setting [12]) and 2450 nM in test [3]. Also, the “intrinsic activity response” value in test [2] (5 hours incubation with ligand) is given as “No responses”.

As to `Br.Br.N=C(N)NCCSC(=N)N` [VUF 8430, 2-[(aminoiminmethyl)amino]ethyl carbamimidothioic acid ester dihydrobromide], the “pIC50, CRE-SPAP” value in test [1] was 5.66 ± 0.08. Also, the “pIC50, 3H-cAMP accumulation” value in test [2] (setting [13]) was found to be 6.38 ± 0.07.

With `S=C(NC1CCCCC1)N1CCC(c2cnc[nH]2)CC1` [thioperamide], the Schild slope in test [1] (agonist N-α-methylhistamine) is 0.98 ± 0.07; in test [1] (agonist R-α-methylhistamine), 1.00 ± 0.05; in test [1] (agonist S-α-methylhistamine), 1.01 ± 0.08; in test [1] (agonist histamine), 1.01 ± 0.03; in test [1] (agonist imetit), 1.02 ± 0.07; in test [1] (agonist immepip), 1.06 ± 0.02. For the same compound, the figures for the Schild slope in test [1] (agonist immethridine) and in test [1] (agonist proxyfan) were 1.08 ± 0.04 and 1.02 ± 0.03, respectively. For the same compound, in test [2] (5 hours incubation with ligand), the “inverse agonist response, 3H-cAMP accumulation” value is 106.3 ± 2.6 % basal.

In the case of `NC(=NCc1ccc(Cl)cc1)SCCCc1cnc[nH]1` [clobenpropit], the Schild slope is given as 1.08 ± 0.07 in test [1] (agonist N-α-methylhistamine); 1.10 ± 0.06 in test [1] (agonist R-α-methylhistamine); 1.09 ± 0.04 in test [1] (agonist S-α-methylhistamine); 0.98 ± 0.03 in test [1] (agonist histamine); 1.02 ± 0.04 in test [1] (agonist imetit); 1.05 ± 0.02 in test [1] (agonist immepip). In test [1] (agonist immethridine), this compound displayed a Schild slope of 1.02 ± 0.04. Further, the “intrinsic activity response” value in test [2] (5 hours incubation with ligand) is “No responses”.

As for `c1ccc(COCCCc2c[nH]cn2)cc1` [proxyfan], the IC50 in test [1] was 16.2 nM; in test [2] (setting [4]), 4.9 nM.

As to `Cn1cncc1CCN` [3-methylhistamine], the IC50 in test [1] was 13500 nM.

On to `CNCCc1cnc[nH]1` [N-α-methylhistamine], for which the “pIC50, CRE-SPAP” value in test [1] worked out at 8.89 ± 0.04. In addition, in test [2] (setting [13]), the “pIC50, 3H-cAMP accumulation” value was 9.45 ± 0.05.

As for `Cc1nc(N)sc1CCN` [amthamine], the IC50 in test [1] was 13500 nM.

For `CC(C1=C(CCN(C)C)Cc2ccccc21)c1ccccn1` (stereo not drawn) [dimethindine, dimethindene], the Kd in test [1] (setting [5]) was 2140 nM; in test [1] (setting [6]) it was 2240 nM; in test [1] (setting [7]), 2140 nM; in test [1] (setting [8]), 7760 nM; in test [1] (setting [9]), 2340 nM; in test [1] (Log KD values, agonist imetit) it was 2510 nM. Besides, the Kd is 4170 nM in test [1] (setting [10]), 2570 nM in test [1] (setting [11]), 5750 nM in test [1] (setting [12]) and 1910 nM in test [3]. Moreover, in test [2] (5 hours incubation with ligand), the “intrinsic activity response” value is “No responses”.

As to `N=C(N)SCCc1cnc[nH]1` [imetit], the IC50 is 0.437 nM in test [1] and 0.123 nM in test [2].

The record behind these values is publication PMC2430196, “Antagonist affinity measurements at the Gi-coupled human histamine H3 receptor expressed in CHO cells” (BMC Pharmacology, 2008).
